Results from patent US20050233413A1, “Neuroprotective polypeptides and methods of use” (priority 2002, published 2005).
Read-outs that look alike come from different tables or passages of the source. Where no end group is shown, it is not given here.

Legend:
[1] = tested on: primary cultured neurons treated with 25 μM Aβ1-43; type: cell-based; conditions: for concentration of full neuroprotection against Aβ1-43 / suppression of Aβ neurotoxicity in the presence of 100 μM EFLIVIKS: 25 μM Aβ1-43; for suppression of Aβ neurotoxicity in the presence of 100 μM EFLIVIKS: EF-HN and EF-HNG at 10 μM, WST-8 and Calcein assays
Description: (§1) In one assay, transfection with V642I-APP causes cell death in F11 neuronal hybrid cells. In the other, treatment with Aβ peptides causes cell death in primary cultured cortical neurons.
(§2) The primary culture of mouse cortical neurons was performed in poly-L-lysine-coated 24-well plates or 96-well plates (Sumitomo Bakelite, Akita, Japan), in the absence of serum and the presence of N2 supplement, as described previously. The purity of neurons by this method was >98%. Prepared neurons (for neurons seeded in 96-well plates: 2.5×10^4 or 5×10^4 cells/well, 100 μl culture medium/well; for neurons seeded in 24-well plates: 1.25×10^5 cells/well, 250 μl culture medium/well) were preincubated with or without 10 μM (in case for the experiment with 10 μM HN) synthetic HN for 16 hr, and treated with 25 μM Aβ in the presence or absence of 10 μM HN for 72 hr, respectively. As primary neurons were vulnerable to transient dryness during medium exchange, we treated neurons with 25 μM Aβ as follows. First, a half volume (50 μl for neurons in 96-well plates; 125 μl for neurons in 24-well plates) of old medium was discarded. Then, the same volume (50 μl for neurons in 96-well plates; 125 μl for neurons in 24-well plates) of prewarned fresh medium containing 10 μM HN and 50 μM Aβ (Aβ was directly resolved) was added to the culture. The Aβ peptides used at 25 μM to induce neurotoxicity formed aggregation in the medium during the cell culture at 37° C. for 72 hr. as described. The WST-8 cell viability assay was performed, using Cell Counting Kit-8 (Wako Pure Chemical Industries, Osaka, Japan), as described previously.
(§3) Calcein assay was performed with Calcein-AM {3′,6′-di-(O-acetyl)-2′,7′-bis [N,N-bis(carboxymethyl)aminomethyl] fluorescein, tetraacetoxymethyl ester; Dojindo}, as described previously. These assays were simultaneously performed in the experiments with neurons seeded in 96-well plates, as follows. Seventy-two hours after Aβ treatment, cells were added with the mixture of 10 μl WST-8 solution and 1 μl of 600 μM Calcein-AM. After 2 hr incubation in a CO2 incubator at 37° C., WST-8 absorbance was measured as OD450. After exchanging the medium to PBS to lower the background, Calcein-specific fluorescence (ex=485 nm, em=535 nm) was observed by fluorescence microscopy or measured by a spectrofluorometer (Wallac1420 ARVOsx Multi Label Counter). Most cell viability data using Calcein assay and WST-8 assay were obtained from neurons seeded at 5×10^4 cells/well in 96-well plates (high-density neurons) and confirmed by both assays with the cells seeded at 2.5×10^4 cells/well (low-density neurons).
Some experiments for Calcein assay were performed with neurons seeded in 24-well plates. […] In most experiments using primary neurons, four independent experiments were performed and the means? S. D. of the results were discussed.

[2] = molecular target: T1, HN (self-dimerization) (Homo sapiens, UniProt Q8IVG9, S7A); experiment: Dimerization experiment (Ni-bead precipitation of FLAG-tagged peptide by (His)6-tagged peptide); type: binding; conditions: excess amounts of competitor
T1 construct: host or cells: chemically synthesised peptide (no expression host)
T1 sequence (Q8IVG9 with tags, fused parts or gaps S7A): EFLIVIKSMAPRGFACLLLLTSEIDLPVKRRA
Description: (§4) Synthetic (His)6-tagged HN derivative peptides (1 nmol) was incubated with 20 μl of Ni-NTA agarose (QIAGEN, Hilden, Germany) in a total volume of 0.5 ml of buffer A [20 mM Tris/HCl (pH8.0) and 1 mM DTT] for 1 hr at 4° C. and washed once with buffer B [20 mM Tris/HCl (pH 7.4), 1 mM DTT, and 150 mM NaCl]. Synthetic FLAG-tagged peptides (1 nmol) were mixed with the beads immobilizing (His)6-tagged peptides in a total volume of 0.5 ml of buffer B for 2 hr at 4° C. on a rotating shaker, and washed three times with buffer B. The washed beads were mixed with 20 μl of 2× sampling buffer [100 mM Tris/HCl (pH6.8), 200 mM DTT, 4% (w/v) SDS, 0.2% bromophenol blue, and 20% (v/v) glycerol] and boiled. The supernatant was submitted to Tris/Tricine SDS-PAGE, followed by immunoblotting analysis with 1/5000 anti-FLAG monoclonal antibody M2 (Sigma).

[3] = molecular target: T2, HN (self-dimerization) (Homo sapiens, UniProt Q8IVG9); experiment: as above; type: binding; conditions: excess amounts of competitor
T2 construct: host or cells: chemically synthesised peptide (no expression host)
Description: as §4

[4] = tested on: Aβ and V642I-APP; type: cell-based; conditions: Table 5, marked **
Excerpt: (§5) F11 cells, the hybrid of a rat embryonic-day-13 primary cultured primary neuron and a mouse neuroblastoma cell, are one of the best models for primary cultured neurons as they carry representative characteristics of primary neurons, such as generation of action potentials without differentiation by NGF [22]. They have been used in various studies of is neuronal functions. Using these cells, the underlying mechanisms for cytotoxicity by V642I-APP have well been analyzed. Cytotoxicity by V642 mutants of APP has also been confirmed in multiple different systems. F11 cells were grown in Ham's F-12 (GibcoBRL, Gaithersburg, Md.) plus 18% fetal bovine serum (FBS; Hyclone, Logan, Utah) and antibiotics, as described previously. F11 cells (7×10^4 cell/well in a 6-well plate cultured in Ham's F-12 plus 18% FBS for 12-16 hr) were transfected with plasmids encoding FAD genes by lipofection [FAD cDNA 2 μg, LipofectAMINE 4 μl, PLUS reagent 8 μl (GibcoBRL)] in the absence of serum for 3 hr, and were incubated with Ham's F-12 plus 18% FBS for 2 hr. Then, culture media were changed to Ham's F-12 plus 10% FBS with or without HN peptides, and cells were cultured for an additional 67 hr. Seventy-two hr after transfection, cell mortality was measured by Trypan blue exclusion assay, performed as follows. Cells were suspended by pipetting gently, and 50 μl of 0.4% (finally 0.08%) Trypan blue solution (Sigma, St Louis, Mo.) was mixed with 200 μl of the cell suspension at room temperature. Stained cells were counted within 3 min after the mixture with Trypan blue solution.
as §2
as §3, with “Most cell viability data using Calcein assay and WST-8 assay were obtained from neurons seeded at 5×10^4 cells/well in 96-well plates (high-density neurons) and confirmed by both assays with the cells seeded at 2.5×10^4 cells/well (low-density neurons).” left out

[5] = tested on: F11 cells transfected with V642I-APP cDNA; experiment: F11 cell death by V642I-APP transfection (Trypan blue exclusion); type: cell-based; conditions: for potency of cytoprotection against V642I-APP relative to HN: times higher than that of HN
Excerpt: as §1, §5

[6] = Apparent stability of peptides in the culture medium; type: physicochemical; conditions: 72-hr incubation of 10 μM peptides in the cultured medium; data not shown
Excerpt: The Ser^7 residue plays a role different from that of Ser^14. S7A substitution nullified the action of HN, while Ser^7 racemation had no influence. […] Given the fact that EFLIVIKS or EFLIVKS is the established amino acid sequence to form a dimer and that EFLIVIKS alone had no cytoprotective action, it is most likely that Ser^7 is essential for HN to self-dimerize and that self-dimerization of HN is essential for the action of HN. […] This level of stability alterations could not account for the drastic potentiation of the rescue action by the fusion with EFLIVIKS.

[7] = tested on: HN (self-dimerization); experiment: Dimerization experiment (Ni-bead precipitation of FLAG-tagged peptide by (His)6-tagged peptide); type: binding; conditions: Ni-bead precipitation, anti-FLAG immunoblot
Description: as §4

[8] = tested on: F11 cells transfected with V642I-APP, NL-APP, M146L-PS1 or N141I-PS2 cDNA; type: cell-based, rat/mouse hybrid
Excerpt: as §5

[9] = tested on: Aβ and four FAD genes (V642I-APP, NL-APP, M146L-PS1, and N141I-PS2); type: cell-based
Excerpt: as §5, §2
as §3, with “Most cell viability data using Calcein assay and WST-8 assay were obtained from neurons seeded at 5×10^4 cells/well in 96-well plates (high-density neurons) and confirmed by both assays with the cells seeded at 2.5×10^4 cells/well (low-density neurons).” left out

[10] = tested on: V642I-APP, NL-APP, M146L-PS1, N141I-PS2 holoprotein expression in F11 cells; experiment: Immunoblot analysis of transfected FAD gene expression; type: cell-based, rat/mouse hybrid; conditions: F11 cells treated with peptide
Description: Immunoblot analysis was performed as described. For the analysis of transfected FAD gene expression, lysates (20 μg/lane) from cells transfected with each FAD gene (V642I-APP, NL-APP, M146L-PS1, N141I-PS2) were submitted to SDS-PAGE and were electrically blotted to a PVDF sheet. After blocking, the sheet was soaked with antibodies [for APP mutants: 5 μg/ml 22C11 (CHEMICON, Temecula, Calif.); for PS1 mutant: 1/2000 of anti-PS1 N-terminus antibody (CHEMICON) for PS2 mutant: 1/500 of anti-PS2 antibody (Cell Signaling Technology, Beverly, Mass.)] and then with HRP-labeled secondary antibodies. The antigenic bands were visualized by ECL (Amersham Pharmacia Biotech, Uppsala, Sweden).

[11] = tested on: Aβ and four FAD genes (V642I-APP, NL-APP, M146L-PS1, and N141I-PS2); conditions: cited from earlier work

Sequence: EFLIVIKS [dimerization peptide, reference compound]
- concentration up to which no neuroprotection against Aβ1-43 was exerted ([1]; 25 μM Aβ1-43, primary neurons): > 100 µM
- effect of excess competitor on EF-(S7A)HN-FLAG precipitation by (His)6-EF-(S7A)HN [2]: blocked
- effect of excess competitor on HN-FLAG precipitation by (His)6-HN [3]: could not interfere
- Full protection [4]: NE** (the corresponding peptide had no cytoprotective effect at 10 μM)
- IC50 [4]: > 10000 nM

Sequence: EFLIVIKSMAPRGFACLLLLTSEIDLPVKRRA [EF-(S7A)HN]
- IC50 [5]: 1 nM
- concentration of full cytoprotection / complete suppression against V642I-APP ([5]; F11 cells): 100 nM
- potency of cytoprotection against V642I-APP relative to HN [5]: about 100 times
- amount of peptide relative to the amount at time zero [6]: virtually unaltered
- IC50 [1]: ~10 nM
- concentration of full neuroprotection against Aβ1-43 [1]: 100 nM
- suppression of Aβ neurotoxicity in the presence of 100 μM EFLIVIKS [1]: could not suppress Aβ neurotoxicity at all
- self-dimerization / complex formation (in words) [7]: self-dimerizes through the EFLIVIKS region
- Full protection (minimal concentration that exerted full cytoprotection) [4]: ˜100 nM

Sequence: EFLIVIKSMAPRGFSCLLLLTGEIDLPVKRRA [EF-HNG]
- IC50 ([8]; each of V642I-APP, read-out: IC50 of suppression of neuronal cell death by FAD genes): ~0.01 nM
- amount of peptide relative to the amount at time zero [6]: virtually unaltered
- concentration of full neuroprotection against Aβ1-43 [1]: 1 nM
- suppression of Aβ neurotoxicity in the presence of 100 μM EFLIVIKS [1]: could fully suppress Aβ neurotoxicity
- IC50 ([1]; both Calcein fluorescence and WST-8 absorbance assays, read-out: IC50 of cytoprotection against Aβ1-43): ~0.1 nM
- IC50 [9]: 0.01 to 0.1 nM
- Full protection (minimal concentration that exerted full cytoprotection) ([9]; Table 5, marked *): ˜1 nM

Sequence: EFLIVIKSMAPRGFSCLLLLTSEIDLPVKRRA [EF-HN]
- potency of cytoprotection against V642I-APP relative to HN [5]: about 100 times
- amount of peptide relative to the amount at time zero [6]: virtually unaltered
- suppression of Aβ neurotoxicity in the presence of 100 μM EFLIVIKS [1]: could fully suppress Aβ neurotoxicity
- potency of neuroprotection against Aβ relative to HN ([1]; times as high as / higher than authentic HN): about 100 times
- Full protection (minimal concentration that exerted full cytoprotection) [4]: ˜100 nM

Sequence: MAPAGASCLLLLTGEIDLPVKRRA [AGA-HNG, reference compound]
- CMV-promoter-driven expression of V642I-APP, NL-APP, M146L-PS1, or N141I-PS2 holoprotein [10]: little or only marginal alteration
- concentration of full cytoprotection [9]: 100 to 300 pM
- Full protection (minimal concentration that exerted full cytoprotection) ([9]; Table 5, marked *): 100 to 300 pM
- augmentation of the potency of HNG by Ala substitution at both Arg4 and Phe6 ([11]; previously reported [16]): 3-10 times
- concentration of full neuroprotection ([11]; previously reported [16]): 100 to 300 pM

Sequence: MAPRGFACLLLLTSEIDLPVKRRA [S7A HN]
- concentration up to which no cytoprotection against V642I-APP was exerted ([5]; F11 cells): > 10 µM
- cytoprotective action against FAD genes (in words) ([8]; V642I-APP): no effect
- amount of peptide relative to the amount at time zero [6]: about ⅔
- concentration up to which no neuroprotection against Aβ1-43 was exerted ([1]; 25 μM Aβ1-43, primary neurons): > 10 µM
- self-dimerization / complex formation (in words) [7]: little activity for self-dimerization
- effect of excess competitor on EF-(S7A)HN-FLAG precipitation by (His)6-EF-(S7A)HN [2]: not
- Full protection ([9]; Table 5, marked *): NE* (the corresponding peptide had no cytoprotective effect at 10 μM)
- IC50 ([9]; Table 5, marked *, read-out: IC50): > 10000 nM

Sequence: PRGFSCLLLLTSEIDLP [HN17, Pro3-Pro19 region of HN]
- cytoprotection potency compared with authentic HN (in words) ([11]; as disclosed in [16]): as potent in cytoprotection as authentic HN

Sequence: YMAPRGFSCLLLLTGEIDLPVKKKK [HNG-KKK, HNG with its C-terminal KRRA substituted to KKKK]
- concentration up to which no neuroprotection against Aβ1-43 was exerted ([1]; 25 μM Aβ1-43, primary neurons): > 10 µM
- neuroprotective action against Aβ1-43 (in words) ([1]; 25 μM Aβ1-43, primary neurons): lost the neuroprotective action
- self-dimerization / complex formation (in words) [7]: little activity to form a complex with HN
- effect of excess competitor on HN-FLAG precipitation by (His)6-HN [3]: no effect
- Full protection [4]: NE** (the corresponding peptide had no cytoprotective effect at 10 μM)
- IC50 [4]: > 10000 nM
